For one data set, the system named is P. berghei ANKA strain. The data set is classed as in vivo. Particulars: for GIP of P. bergei (growth inhibition percentage): 10 mg/kg/day, positive control; for appearance / toxicity in treated mice: in vivo. As to the method:
The in vivo antimalarial activity of the compounds was measured by the classical 4-day suppressive test. Briefly, on day 0, groups of five NMRI male mice, weighing 20 ± 2 g each, were inoculated with 2 × 10^7 red blood cells RBCs infected by erythrocytic stages of rodent malaria parasite P. berghei ANKA strain. Two hours later, each group of mice was treated intraperitoneally with a dose of 50 mg/kg of the selected compound, previously prepared in DMSO. Treatment was continued from day 1 to day 3, always at similar times. On day 4, Giemsa-stained thin blood smears from the tail of the mice were prepared and microscopically examined with 1,000× magnification. The mean of the parasitemia of each group was calculated in a total of 1,000 RBCs, and the growth inhibition percentage of parasite was estimated in relation to the control group, which received only the solvent of the products. % inhibition = [(Par control – Par comp)/(Par control)] × 100

The subject of data set [1] is P. falciparum 3D7 strain, chloroquine sensitive. The data set is described as follows: In vitro antimalarial activity screening (SYBR Green I micromethod). The data set is classed as cell-based. The settings on record: Plasmodium falciparum, read-out: P. falciparum 3D7 IC50. As to the method:
The SYBR^©GreenI-based micromethod was followed for testing the antimalarial activity of the compounds. Erythrocytic stages of P. falciparum 3D7 strain, chloroquine sensitive, were maintained in RPMI 1640 culture medium supplemented with 0.5% Albumax II at 37 °C in an atmosphere with 5% CO2. […] Next, stock solutions of each compound were prepared in DMSO and diluted in RPMI medium in order to obtain concentrations from 10 to 0.01 µg/mL. […] All compounds and controls were placed in triplicate. The plate was incubated under the same conditions. After 48 h, the plate was removed from the incubator and frozen for at least 1 h at -70 °C and then thawed. Finally, 100 µL of SYBR^©GreenI in lysis buffer (0.2 µL/mL) was added per well and shaken for 5 minutes or until no precipitated erythrocytes were observed. The plate was left to stand in the dark for 1 h at room temperature. Fluorescence intensity (FI) for each well was measured. The background of the nonparasitized erythrocytes was subtracted from each well tested.

Another data set concerns Murine J774 macrophages. Nature of the data set: Nonspecific cytotoxicity test (MTT). The data set is classed as cell-based. Particulars: 10 µg/mL, 24 h exposure. As to the method: Murine J774 macrophages were maintained in RPMI 1640 medium supplemented with 10% FBS at 37 °C in a 5% CO2 atmosphere. First, in a flat bottom 96-well microplate, 100 µL of macrophage suspension in RPMI medium, containing 5 × 10^4 cells, were distributed per well. The cells were allowed to attach for 24 h at 37 °C. Next, the medium was replaced by different concentrations of the compounds in 200 µL of medium, or DMSO at the same concentration as growth control, and the cells were exposed to the compounds solutions for another 24 h. Each concentration was assayed three times. Afterwards, the medium was eliminated and 100 µL/well of 3-(4,5-dimethythiazol-2-yl)-2,5-diphenyltetrazolium bromide (MTT) solution, 0.4 mg/mL in PBS, was added and the plates were returned to incubator for 1 h. The suspension was removed and the toxic effect of the compounds was assessed by the reduction of MTT to formazan crystals (as a cell viability indicator); said crystals were solubilized by adding 100 µL of DMSO. Finally, the optical density (OD) was measured at 595 nm and the toxicity percentage was calculated as follows:% toxicity = [(O.D.control - O.D.comp)/(O.D.control)] × 100

The test system of data set [2] is ferriprotoporphyrin IX biomineralization. Set-up: method as in PMID 12128052. Particulars: read-out: IC50 in the FBIT test; cited from earlier work.
Setting [3] is: 3D7, Table 1, 48 h incubation, mean of two experiments in triplicate.
Setting [4] is: 3D7, Table 2, 48 h incubation, mean of two experiments in triplicate.

The values below come from article PMC6255377, “New 1-Aryl-3-Substituted Propanol Derivatives as Antimalarial Agents” (Molecules, 2009).

Read-outs that look alike come from different tables or passages of the source.

A word on the IC50: it is the concentration needed to halve the response being measured. As for `CCN(CC)CCCC(C)Nc1ccnc2cc(Cl)ccc12` (stereo not drawn) [Chloroq., Chloroquine, reference compound], the “GIP of P. bergei (growth inhibition percentage)” value is 100% at 10 mg/kg with P. berghei ANKA strain (four-day treatment, NMRI male mice) and “GIP = Growth inhibition percentage of the rodent malaria parasite after a four-day treatment. 10 mg/kg/day of chloroquine, positive control, inhibited 100% the growth parasite. ^a Toxic = death of more than half of the animals in the tested group” with P. berghei ANKA strain (four-day treatment, NMRI male mice, listed as chloroquine). Besides, in data set [1] (3D7, 48 h), the IC50 is 80 nM.

`OC(CCN1CCN(c2cccc3ccccc23)CC1)c1csc2ccc(F)cc12` (stereo not drawn) [Compound 12]: the “appearance / toxicity in treated mice” value in the data set with P. berghei ANKA strain is on record as “the appearance of the mice was good”. Moreover, the IC50 in data set [1] (setting [3]) stood at 160 nM.

As to `COc1ccccc1N1CCN(CCC(O)c2csc3ccc(F)cc23)CC1` (stereo not drawn) [Compound 15], the “appearance / toxicity in treated mice” value with P. berghei ANKA strain was “looked unhealthy and showed clear evidence of weight loss”. In addition, the IC50 in data set [1] (setting [3]) is 330 nM.

For the molecule `Cc1ccc2cccc(N3CCN(CCC(O)c4csc5ccc(F)cc45)CC3)c2n1` (stereo not drawn) [Compound 23], the “appearance / toxicity in treated mice” value in the data set on P. berghei ANKA strain is “looked unhealthy and showed clear evidence of weight loss”. Moreover, the half-maximal inhibitory concentration (IC50) in data set [1] (setting [3]) was 380 nM.

What is called melting point is the temperature, or range, at which the solid turns liquid. As to `O=[N+]([O-])c1ccc(N2CC[C@H](NCCC(O)c3csc4ccccc34)C2)c(C(F)(F)F)c1` (stereo partly drawn) [Compound 30, 1-(Benzo[b]thiophen-3-yl)-3-[1-(4-nitro-2-trifluoromethylphenyl)-(S)-pyrrolidin-3-ylamino]propan-1-ol], the melting point is 109 to 110 °C. The half-inhibitory concentration (IC50) in data set [1] (setting [3]) stood at 970 nM.

`O=[N+]([O-])c1ccc(N2CCC(NCCC(O)c3csc4ccccc34)CC2)c(C(F)(F)F)c1` (stereo not drawn) [Compound 31, 1-(Benzo[b]thiophen-3-yl)-3-[1-(4-nitro-2-trifluoromethylphenyl)piperidin-4-ylamino]propan-1-ol]: the “cytotoxicity on murine macrophages J774” value with Murine J774 macrophages is reported as “showed toxicity”. Moreover, the “GIP of P. bergei at 50 mg/kg/day (growth inhibition percentage)” value with P. berghei ANKA strain (50 mg/kg/day intraperitoneally, four-day treatment, NMRI male mice) is “Toxic”. In addition, the “appearance / toxicity in treated mice” value in the data set on P. berghei ANKA strain (male, NMRI, mouse, 4 days) was “cytotoxicity of compound 31 was confirmed in the in vivo test”. Moreover, in data set [1] (setting [3]), the IC50 worked out at 190 nM.

In the case of `O=[N+]([O-])c1ccc(N2CCN(CCC(O)c3csc4ccc(F)cc34)CC2)cc1` (stereo not drawn) [Compound 32, 1-(5-Fluorobenzo[b]thiophen-3-yl)-3-[4-(4-nitrophenyl)piperazin-1-yl]propan-1-ol], the melting point was 189 to 190 °C. For the same molecule, the IC50 in data set [1] (setting [3]) was more than 20000 nM.

For the molecule `O=[N+]([O-])c1ccc(N2CCC(NCCC(O)c3csc4ccccc34)CC2)cc1` (stereo not drawn) [Compound 33, 1-(Benzo[b]thiophen-3-yl)-3-(1-(4-nitrophenyl)piperidin-4-ylamino)propan-1-ol], the melting point was in the range of 153 to 155 °C. The IC50 in data set [1] (setting [3]) came to 1000 nM.

As for `O=[N+]([O-])c1ccc(N2CCCN(CCC(O)c3csc4ccccc34)CC2)cc1` (stereo not drawn) [Compound 34, 1-(Benzo[b]thiophen-3-yl)-3-(4-(4-nitrophenyl)-1,4-diazepan-1-yl)propan-1-ol], the melting point was in the range of 47 to 48 °C. For the same molecule, the IC50 in data set [1] (setting [3]) was 3430 nM.

Turning to `OC(CCN1CCN(c2cnc3ccccc3n2)CC1)c1csc2ccccc12` (stereo not drawn) [Compound 35, 1-(Benzo[b]thiophen-3-yl)-3-(4-(quinoxalin-2-yl)piperazin-1-yl)propan-1-ol], the melting point lay in the range of 155 to 156 °C. In addition, the IC50 in data set [1] (setting [3]) stood at 620 nM.

On to `OC(CCN1CCN(c2ccc(Cl)cc2)CC1)c1ccc(-c2ccccc2)cc1` (stereo not drawn) [Compound 38, 1-(4-Phenyl)phenyl-3-[4-(4-chlorophenyl)piperazin-1-yl]propan-1-ol], for which the melting point is 169 to 170 °C. The IC50 in data set [1] (setting [4]) was more than 20000 nM.

In turn, `COc1ccccc1N1CCN(CCC(O)c2ccc(-c3ccccc3)cc2)CC1` (stereo not drawn) [Compound 40, 1-(4-Phenyl)phenyl-3-[4-(2-methoxyphenyl)piperazin-1-yl]propan-1-ol] displayed a melting point of 109 to 110 °C. Also, in data set [1] (setting [4]), the IC50 stood at 14600 nM.

With `COc1ccccc1N1CCN(CCC(O)c2c[nH]c3ccccc23)CC1` (stereo not drawn) [Compound 41, 1-(3-Indolyl)-3-[4-(2-methoxyphenyl)piperazin-1-yl]propan-1-ol], the melting point lay in the range of 188 to 189 °C. Moreover, the IC50 in data set [1] (setting [4]) is more than 20000 nM.

Consider `C=C[C@H]1C[N@@]2CC[C@H]1C[C@H]2[C@H](O)c1ccnc2ccc(OC)cc12` [quinine], for which, in data set [2], the IC50 was 324 µM.
